Measurements taken from article PMC6361841, “Repurposing of Drugs as Novel Influenza Inhibitors From Clinical Gene Expression Infection Signatures” (Frontiers in Immunology, 2019).

Legend:
[1] = system: A/Lyon/969/2009 H275Y (H1N1); format: cell-based, influenza virus
[2] = system: influenza A/Lyon/969/09 (H1N1)pdm09 virus; format: cell-based; conditions: basolateral medium replaced with fresh medium without drugs

SMILES	Viral titer [1] [log TCID50/ml]	Reversibility of inhibitory and protective properties [2]
CCNCC(O)c1cccc(O)c1 (stereo not drawn) [Etilefrine]	2.8	
COc1ccc([C@@H]2Sc3ccccc3N(CCN(C)C)C(=O)[C@@H]2OC(C)=O)cc1 [Diltiazem]	2.8	progressively reversible
